Test results from patent publication US11833119B2, “Combination therapies for the treatment of hepatocellular carcinoma” (priority 2018, dated 2023).

Columns and labels:
[1] = test system: Hep3B xenograft (human hepatocellular cancer cell line); assay: Hep3B cells xenograft in vivo study, antitumor activity; set-up: species or system BALB/c nu/nu female mice; conditions: for Tumor growth inhibition % (TGI): 53 days
Description: The cell line used, Hep3B (also called HEP3B.1-7), was sourced from American Type Culture Collection (ATCC), verified free of […] contamination and verified for identity by short tandem repeat analysis of 9 markers.
For the human hepatocellular cancer cell line Hep3B xenografts, Hep3B cells were cultured in RPMI1640 medium containing 10% FBS at 37° C. in a 5% CO2 atmosphere and kept in exponential growth phase. For harvesting, the cells were washed with PBS, incubated with 0.25% trypsin-EDTA, and suspended in a 1:1 mixture of RPMI1640 medium containing 10% FBS. To prepare the inoculum at a final concentration of 5×10^7 cells/mL, the cell were spun and resuspended in RPMI1640 and Matrigel (Corning). To generate xenografts, 0.1-mL of the inoculum was injected subcutaneously into the right flank region of BALB/c nu/nu female mice, approximately 8-week-old, weighing 18-20 g, giving a final concentration of 5×10^6 cells/mouse.
When the mean tumor volume (TV) reached approximately 170 mm^3 (10 days after implantation), mice were selected based on their TVs, and were sorted into multiple treatment groups with 8 animals per group. Per os (PO) treatment with Compound 1 (300 mg/kg for Hep3B and 500 mg/kg for LIX125) alone or in combination with lenvatinib vehicle (control) or lenvatinib (10 mg/kg or 3 mg/kg) administered once daily (QD). Additional groups included treatment with lenvatinib (10 mg/kg or 3 mg/kg) in combination with Compound 1 vehicle. (Lenvatinib vehicle includes the vehicle in which lenvatinib is administered; but, without any lenvatinib. Likewise, Compound 1 vehicle includes the vehicle in which Compound 1 is administered; but, without any Compound 1.)
The administration volume (0.1 mL/10 g body weight) was calculated from the individual mouse body weight (BW) before administration. Body weights were measured daily and tumor measurements were performed twice weekly. Mice with >20% body weight loss compared with their day 1 body weight or bearing tumors with the longest diameter […] were immediately euthanized to prevent any pain or suffering for the animal.
(§1) The tumor volume (TV) in mm^3 was calculated according to the following formula: TV=length×width^2×0.5 length: largest diameter of tumor (mm) width: diameter perpendicular to length (mm). The tumor growth inhibition % (TGI) was calculated according to the following formula: Tumor growth inhibition % (TGI)=[(Average control TV day X−Treatment TV day X)/(Average control TV day X)]×100, where day X is any day of the treatment. The antitumor effects of the treatment, partial regression (PR) and complete regression (CR), stable disease (SD), and progressive disease (PD) were defined as follows: […]
PD: 3 consecutive measurements >120% of starting volume or 3 consecutive increasing measurements from best response; SD: 3 consecutive measurements >50% and <120% of starting volume; PR: 3 consecutive measurements <50% of starting volume; CR: 3 consecutive measurements <30 mm^3.
Data represent the mean±SEM for tumor volume (N=8). The differences in TV between groups were analyzed by multiple unpaired t-tests with significance determined using the Holm-Sidak method. Statistical analyses were performed using the GraphPad Prism version 7 (GraphPad Software, La Jolla, CA).
To determine whether lenvatinib enhances tumor growth inhibition (TGI) exerted by Compound 1, the Hep3B cell line was grown as a xenograft in female nude immunocompromised mice. Tumor bearing mice were orally treated daily for 53 days with (a) 300 mg/kg Compound 1 as single agent with lenvatinib vehicle; (b)(i) 10 mg/kg lenvatinib as a single agent with Compound 1 vehicle; (b)(ii) 3 mg/kg lenvatinib as a single agent with Compound 1 vehicle; (c)(i) 300 mg/kg Compound 1 and 10 mg/kg lenvatinib in combination; or (c)(ii) 300 mg/kg Compound 1 and 3 mg/kg lenvatinib in combination.

[2] = test system: LIX125, a hepatocellular carcinoma patient derived xenograft (PDX) model; assay: LIX125 PDX xenograft in vivo study, antitumor activity; conditions: 32 days
Description: The human primary hepatocellular model LIX125 from ChemPartner (shangpharma.com) was implanted into the female severe combined immunodeficiency (SCID) mice. When the tumors developed in mice, they were sacrificed and the resected tumors were implanted into female NU/NU mice for tumor preservation, histological diagnosis and in vivo efficacy study. Solid tumor tissues were depleted of necrotic components, cut into 10-15 mg pieces and mixed. Three to five pieces were mixed with […] Matrigel and implanted into a flank of 6-8 week old female NU/NU immune compromised mice weighing 18-20 g. All of the primary tumors utilized in this study had undergone 3 to 5 passages in vivo and the tumor histology of each was maintained over the serial transplantation.
When the mean tumor volume (TV) reached approximately 170 mm^3 (10 days after implantation), mice were selected based on their TVs, and were sorted into multiple treatment groups with 8 animals per group. Per os (PO) treatment with Compound 1 (300 mg/kg for Hep3B and 500 mg/kg for LIX125) alone or in combination with lenvatinib vehicle (control) or lenvatinib (10 mg/kg or 3 mg/kg) administered once daily (QD). […]
The administration volume (0.1 mL/10 g body weight) was calculated from the individual mouse body weight (BW) before administration. Body weights were measured daily and tumor measurements were performed twice weekly. […]
as §1, with “treatment.” for “treatment. The antitumor effects of the treatment, partial regression (PR) and complete regression (CR), stable disease (SD), and progressive disease (PD) were defined as follows:”
Data represent the mean±SEM for tumor volume (N=8). The differences in TV between groups were analyzed by multiple unpaired t-tests with significance determined using the Holm-Sidak method. […]

Row | SMILES | Tumor growth inhibition % (TGI) ([1]; Compound 1 300 mg/kg PO QD single agent with lenvatinib vehicle, vs vehicle control P<0.00001) [%] | animals with progressive disease (PD) ([1]; Compound 1 300 mg/kg single agent, PD: 3 consecutive measurements >120% of starting volume or 3 consecutive increasing measurements from best response) | Tumor growth inhibition % (TGI) ([2]; Compound 1 500 mg/kg PO QD single agent, vs vehicle controls p>0.05) [%] | Tumor growth inhibition % (TGI) ([1]; lenvatinib 3 mg/kg PO QD single agent with Compound 1 vehicle, vs vehicle controls P>0.05) [%] | animals with progressive disease (PD) ([1]; lenvatinib 3 mg/kg single agent) | Tumor growth inhibition % (TGI) ([1]; lenvatinib 10 mg/kg PO QD single agent with Compound 1 vehicle, vs vehicle controls P<0.00005) [%] | animals with progressive disease (PD) ([1]; lenvatinib 10 mg/kg single agent) | Tumor growth inhibition % (TGI) ([2]; lenvatinib 3 mg/kg PO QD single agent, vs vehicle control p>0.05) [%] | Tumor growth inhibition % (TGI) ([2]; lenvatinib 10 mg/kg PO QD single agent, vs vehicle control p<0.0007) [%]
1 | C=CC(=O)Nc1cc(N2CCN(CC)CC2)ccc1Nc1cc(N(C)C(=O)Nc2c(Cl)c(OC)cc(OC)c2Cl)ncn1 [Compound 1, N-(2-((6-(3-(2,6-dichloro-3,5-dimethoxyphenyl)-1-methylureido)pyrimidin-4-yl)amino)-5-(4-ethylpiperazin-1-yl)phenyl)acrylamide] | 81 | 6/8 | 60 | – | – | – | – | – | –
2 | COc1cc2nccc(Oc3ccc(NC(=O)NC4CC4)c(Cl)c3)c2cc1C(N)=O [Lenvatinib, 4-[3-chloro-4-(N′-cyclopropylureido)phenoxy]-7-methoxyquinoline-6-carboxamide] | – | – | – | 23 | 8/8 | 58 | 8/8 | 44 | 72
